Drawing on US20260374782A1, “NEW COMPOUNDS, PROCESSES FOR PREPARING THE SAME AND THEIR USE AS DRUGS” (B&A ONCOMEDICAL, priority 2022, published 2026), this text covers inhibition for 19 compounds.

The experiment concerns the target T1, NKCC1 (Homo sapiens, UniProt P55011).
T1 construct: endogenous in cells; host or cells: native HEK293 cells
T1 sequence (P55011 1-1212): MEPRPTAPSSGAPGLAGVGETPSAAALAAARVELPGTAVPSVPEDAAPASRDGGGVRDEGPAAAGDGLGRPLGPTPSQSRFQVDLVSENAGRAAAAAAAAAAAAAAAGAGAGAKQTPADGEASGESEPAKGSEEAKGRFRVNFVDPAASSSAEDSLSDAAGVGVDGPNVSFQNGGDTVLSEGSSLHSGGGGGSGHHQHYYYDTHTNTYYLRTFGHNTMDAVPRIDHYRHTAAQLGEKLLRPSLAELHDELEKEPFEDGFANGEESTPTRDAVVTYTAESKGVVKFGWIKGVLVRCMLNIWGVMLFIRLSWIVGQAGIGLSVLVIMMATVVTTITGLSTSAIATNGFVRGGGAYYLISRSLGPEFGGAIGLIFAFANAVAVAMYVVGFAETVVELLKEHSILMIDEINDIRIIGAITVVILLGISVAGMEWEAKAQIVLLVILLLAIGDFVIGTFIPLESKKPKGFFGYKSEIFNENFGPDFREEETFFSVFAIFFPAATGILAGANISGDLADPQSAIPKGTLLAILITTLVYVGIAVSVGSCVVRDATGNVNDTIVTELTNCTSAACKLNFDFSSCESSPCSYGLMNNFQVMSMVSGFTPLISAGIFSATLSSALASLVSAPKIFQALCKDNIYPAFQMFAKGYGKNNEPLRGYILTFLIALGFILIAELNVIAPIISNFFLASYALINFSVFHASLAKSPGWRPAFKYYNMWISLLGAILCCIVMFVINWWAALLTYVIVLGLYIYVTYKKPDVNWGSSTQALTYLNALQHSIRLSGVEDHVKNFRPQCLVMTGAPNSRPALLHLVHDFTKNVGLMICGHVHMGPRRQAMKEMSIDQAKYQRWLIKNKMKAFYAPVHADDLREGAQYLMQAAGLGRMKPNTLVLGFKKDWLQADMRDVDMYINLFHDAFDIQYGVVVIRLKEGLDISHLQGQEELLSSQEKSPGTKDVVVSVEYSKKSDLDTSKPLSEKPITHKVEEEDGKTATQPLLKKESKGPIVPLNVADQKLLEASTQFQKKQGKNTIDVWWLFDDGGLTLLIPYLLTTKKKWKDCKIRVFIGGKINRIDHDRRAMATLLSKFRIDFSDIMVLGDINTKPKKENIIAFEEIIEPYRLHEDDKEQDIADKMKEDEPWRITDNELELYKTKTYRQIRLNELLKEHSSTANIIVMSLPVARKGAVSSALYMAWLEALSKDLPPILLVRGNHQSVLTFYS
Kind of experiment: NKCC1-mediated K+ influx (83Rb tracer uptake) in native HEK293 cells, hypertonic saline, 100 μM ouabain. Particulars: HEK293, no drug = 1000, 20 μM bumetanide = 0; for inhibition at 2 µM: read-out: NKCC1 mediated flux inhibition at 2 μM (%); for inhibition at 20 µM: read-out: NKCC1 mediated flux inhibition at 20 μM (%). In kind it is cell-based. The text has this:
The compounds of the invention have been tested for evaluating their potency in inhibiting the NKCC1 channel. The test used is a cellular assay expressing the NKCC1 channel: HEK293 cells are human cells derived from embryonic kidney. The inhibitory activity of the compounds has been evaluated in measuring the modification of the potassium flux at 2 concentrations, as described hereafter in the biological protocol.
HEK293 cells are human cells derived from embryonic kidney. They express at their plasma membranes proteins that transport potassium (K^+). Among these proteins is the Na—K-2Cl cotransporter or NKCC1. This transporter contributes to 40-50% of K^+ influx into the cells. The remaining of K^+ transport is mediated by the Na^+/K^+-ATPase (also known as Na^+ pump or Na^+/K^+ pump), which also contributes some 40-50% of the influx basal flux of 5-10%, which is mainly due to K^+ channels (FIG. 1A). Thus, the HEK293 cell in culture is an ideal model to study the function of NKCC1 and test compounds that inhibits its transport.
The assay to measure NKCC1 function was optimized to obtain the next signal to noise ratio: • a. A slightly hypertonic saline was used to stimulate NKCC1 function. […] By consistent use of this simple manipulation, the NKCC1 signal was enhanced. • b. Ouabain, an inhibitor of the Na^+/K^+ pump, was used at 100 μM. […] A radioactive isotope was used to trace the inward movement of K^+ into the cell (influx). This allowed for highly precise measurements of K^+ influx. Because radioactive isotopes of K^+ had very short half-lives, radioactive isotopes of Rb^+ were used. Rubidium was a monovalent cation which was readily transporter at the K^+ binding site by many transporters and channels. Rb^+ was a congener of K^+, being transported undistinguishably from K^+. ^83Rb (half-life of 83 days) was used since ^86Rb (half-life of 19.6 days) is no longer commercially available. The ^83Rb isotope was used as a tracer, i.e. at a very low amounts to trace the movement of K^+.
K^+ influx measured in native HEK293 was in the range of 7000-9000 pmoles K^+ per mg protein per min. In the presence of 20 μM Ref 1, the flux was reduced to 600-900 pmoles K^+ per mg protein per min. Thus, there was a very solid dynamic range. In each experiment, the flux without Ref 1 was set at 1000 (equivalent to 100.0%) and the flux with 20 μM bumetanide was set at 0 (equivalent to 0%).
For the flux experiments, 35-mm culture dishes were coated with 0.1 mg/mL poly-L-lysine and placed in large 20×20 [square] dishes. For convenience, the poly-L-lysine was placed in the dishes the day before the experiment. Before plating the cells, the poly-L-lysine was aspirated, and each dish washed twice with 1 mL sterile water. Cells from 3 confluent 10-cm dishes were detached with trypsin and resuspended into 49 mL complete medium. Cells (2 mL/35-mm dish) were plated in 24 dishes and allowed to attach for at least 2 hours prior to the flux. This setup allowed the measurement of 8 conditions in triplicates. For the flux, culture medium was aspirated and replaced with 1 mL saline for a preincubation period of 15 min. The saline was aspirated and replaced with 1 mL identical saline containing 0.25 μCi/mL 83Rb for 15 min. Following the uptake period, the radioactive solution was aspirated, and the cells washed 3 times with ice-cold saline. Cells were then lyzed with 500 μl 0.25N NaOH for 1 hour, neutralized with 250 μL glacial acetic acid and 300 μL and 30 μL aliquots were used for μ-scintillation counting and protein assays, respectively. Two 5 μL of each flux solution was used to determine cpm and relate those cpm to nmoles K^+. Potassium influx was expressed in nmoles K^+ per mg protein per min. Note that within an experiment, groups of 3 dishes were separated 2 min apart for easy handling. Also note that since all dishes were plated with a homogeneous cell suspension, and all dishes were identical, the protein content was measured from a subset of dishes. […]

A value given as a limit tells only on which side of the number the result lay.

Regarding `CCCCNc1cc(C(=O)OC)cc(S(=N)(=O)NCCCC)c1Oc1ccccc1` (stereo not shown) [Compound 46, methyl 3-(butylamino)-5-(butylaminosulfonimidoyl)-4-phenoxy-benzoate], the inhibition at 2 µM fell in the range of 30 to 50% and the inhibition at 20 µM is 30 to 50%.
Regarding `CCCCNc1cc(C(=O)OC)cc(S(=N)(=O)NC23CC(C2)C3)c1Oc1ccccc1` (stereo not shown) [Compound 47, methyl 3-[(1-bicyclo[1.1.1]pentanylamino)sulfonimidoyl]-5-(butylamino)-4-phenoxy-benzoate], the inhibition at 2 µM fell in the range of 30 to 50% and the inhibition at 20 µM was in the range of 30 to 50%.
On to `CCCCNc1cc(C(=O)OC)cc(S(=N)(=O)NC2CN3CCC2CC3)c1Oc1ccccc1` (stereo not shown) [Compound 48, methyl 3-(butylamino)-4-phenoxy-5-[(quinuclidin-3-ylamino)sulfonimidoyl]benzoate], for which the inhibition at 2 µM is 30 to 50% and the inhibition at 20 µM is 50 to 75%.
As to `CCCCNc1cc(C(=O)OC)cc(S(=N)(=O)NCC2CCN(C(C)=O)CC2)c1Oc1ccccc1` (stereo not shown) [Compound 49, methyl 3-[[(1-acetyl-4-piperidyl)methylamino]sulfonimidoyl]-5-(butylamino)-4-phenoxy-benzoate], the inhibition at 2 µM lay in the range of 30 to 50% and the inhibition at 20 µM was 10 to 30%.
With `CCCCNc1cc(C(=O)OC)cc(S(=N)(=O)NCC2CCN(C)CC2)c1Oc1ccccc1` (stereo not shown) [Compound 50, methyl 3-(butylamino)-5-[[(1-methyl-4-piperidyl)methylamino]sulfonimidoyl]-4-phenoxy-benzoate], the inhibition at 2 µM lay within 30 to 50% and the inhibition at 20 µM is 30 to 50%.
For `CCCCNc1cc(C(=O)O)cc(S(=N)(=O)N(C)C)c1Oc1ccccc1` (stereo not shown) [Compound 52, 3-(butylamino)-5-(dimethylaminosulfonimidoyl)-4-phenoxy-benzoic acid], the inhibition at 2 µM was 30 to 50% and the inhibition at 20 µM was in the range of 50 to 75%.
On to `CCCCNc1cc(C(=O)O)cc(S(=N)(=O)N2CCCC2)c1Oc1ccccc1` (stereo not shown) [Compound 53, 3-(butylamino)-4-phenoxy-5-(pyrrolidin-1-ylsulfonimidoyl)benzoic acid], for which the inhibition at 2 µM lay in the range of 30 to 50% and the inhibition at 20 µM was at least 75%.
On to `CCCCNc1cc(C(=O)O)cc(S(=N)(=O)N2CCCCC2)c1Oc1ccccc1` (stereo not shown) [Compound 54, 3-(butylamino)-4-phenoxy-5-(1-piperidylsulfonimidoyl)benzoic acid], for which the inhibition at 2 µM was 30 to 50% and the inhibition at 20 µM is at least 75%.
`CCCCNc1cc(C(=O)O)cc(S(=N)(=O)N(C)CC)c1Oc1ccccc1` (stereo not shown) [Compound 55, 3-(butylamino)-5-[[ethyl(methyl)amino]sulfonimidoyl]-4-phenoxy-benzoic acid]: the inhibition at 20 µM fell in the range of 50 to 75%.
Take `CCCCNc1cc(C(=O)O)cc(S(=N)(=O)N2CCOCC2)c1Oc1ccccc1` (stereo not shown) [Compound 56, 3-(butylamino)-5-(morpholinosulfonimidoyl)-4-phenoxy-benzoic acid]: the inhibition at 20 µM lay within 30 to 50%.
As to `CCCCNc1cc(C(=O)O)cc(S(=N)(=O)NCc2ccccc2)c1Oc1ccccc1` (stereo not shown) [Compound 58, 3-[(benzylamino)sulfonimidoyl]-5-(butylamino)-4-phenoxy-benzoic acid], the inhibition at 2 µM is 30 to 50% and the inhibition at 20 µM was at least 75%.
Regarding `CCCCNc1cc(C(=O)O)cc(S(=N)(=O)NCCOC)c1Oc1ccccc1` (stereo not shown) [Compound 59, 3-(butylamino)-5-[(2-methoxyethylamino)sulfonimidoyl]-4-phenoxy-benzoic acid], the inhibition at 20 µM is 50 to 75%.
On to `CCCCNc1cc(C(=O)O)cc(S(=N)(=O)NC2CC2)c1Oc1ccccc1` (stereo not shown) [Compound 60, 3-(butylamino)-5-[(cyclopropylamino)sulfonimidoyl]-4-phenoxy-benzoic acid], for which the inhibition at 2 µM lay within 10 to 30% and the inhibition at 20 µM lay in the range of 50 to 75%.
`CCCCNc1cc(C(=O)O)cc(S(=N)(=O)N2CCCCCC2)c1Oc1ccccc1` (stereo not shown) [Compound 61, 3-(azepan-1-ylsulfonimidoyl)-5-(butylamino)-4-phenoxy-benzoic acid]: the inhibition at 2 µM fell in the range of 30 to 50% and the inhibition at 20 µM is at least 75%.
`CCCCNc1cc(C(=O)O)cc(S(=N)(=O)NCC2CCCCC2)c1Oc1ccccc1` (stereo not shown) [Compound 62, 3-(butylamino)-5-[(cyclohexylmethylamino)sulfonimidoyl]-4-phenoxy-benzoic acid]: the inhibition at 2 µM lay within 10 to 30% and the inhibition at 20 µM is at least 75%.
As for `CCCCNc1cc(C(=O)O)cc(S(=N)(=O)NCC2CCOCC2)c1Oc1ccccc1` (stereo not shown) [Compound 63, 3-(butylamino)-4-phenoxy-5-[(tetrahydropyran-4-ylmethylamino)sulfonimidoyl]benzoic acid], the inhibition at 20 µM lay within 30 to 50%.
`CCCCNc1cc(C(=O)O)cc(S(=N)(=O)Nc2cccnc2)c1Oc1ccccc1` (stereo not shown) [Compound 64, 3-(butylamino)-4-phenoxy-5-[(3-pyridylamino)sulfonimidoyl]benzoic acid]: the inhibition at 2 µM is 50 to 75% and the inhibition at 20 µM was at least 75%.
For the compound `CCCCNc1cc(C(=O)O)cc(S(=N)(=O)Nc2cccc(OC)c2)c1Oc1ccccc1` (stereo not shown) [Compound 65, 3-(butylamino)-5-[(3-methoxyanilino)sulfonimidoyl]-4-phenoxy-benzoic acid], the inhibition at 2 µM fell in the range of 50 to 75% and the inhibition at 20 µM is at least 75%.
As for `CCCCNc1cc(C(=O)O)cc(S(=N)(=O)N2CCC(c3ccccc3)CC2)c1Oc1ccccc1` (stereo not shown) [Compound 66, 3-(butylamino)-4-phenoxy-5-[(4-phenyl-1-piperidyl)sulfonimidoyl]benzoic acid], the inhibition at 2 µM was 30 to 50% and the inhibition at 20 µM was at least 75%.
